Reference: US10076519B2 (CYTOKINETICS, INC., priority 2010, dated 2018)

What follows are compounds tested on rabbit skeletal myofibrils (fast skeletal myofibrils) (assay: Activation of fast skeletal myofibrils (PUMA assay, PK/LDH-coupled ATPase at pCa25)). Details: AC1.4 determined according to the procedure of Example 39; reported as class symbols.
Type: biochemical
In short: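 Detergent-washed rabbit psoas myofibrils (~90% fast fibres, calcium-regulated) assayed at calcium giving 25% of maximal ATPase rate (pCa25). ADP turnover coupled via pyruvate kinase/lactate dehydrogenase to NADH oxidation, read at 340 nm. Buffer 12 mM PIPES, 2 mM MgCl2, 1 mM DTT, pH 6.8; AC1.4 values derived.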

Compound | Mean AC1.4
CC(C)(CNc1ccc(-c2ccc(CN)nc2)nn1)c1ccc(F)cc1 [{6-[6-(aminomethyl)(3-pyridyl)]pyridazin-3-yl}[2-(4-fluorophenyl)-2-methylpropyl]amine] | B (B=1-10 uM)
Fc1cccnc1C1(CNc2ccc(-c3cn[nH]c3)nn2)CCC1 [{[(3-fluoro(2-pyridyl))cyclobutyl]methyl}(6-pyrazol-4-ylpyridazin-3-yl)amine] | C (C=10-20 uM)
CC(C)Nc1n[nH]c2ccc(-c3ccc(NCC4(c5ncccc5F)CCC4)nn3)cc12 [{[(3-fluoro(2-pyridyl))cyclobutyl]methyl}(6-{3-[(methylethyl)amino](1H-indazol-5-yl)}pyridazin-3-yl)amine] | A (A=<1 uM)
Cn1cc(-c2ccc(NCC3(c4ncccc4F)CCC3)nn2)cn1 [{[(3-fluoro(2-pyridyl))cyclobutyl]methyl}[6-(1-methylpyrazol-4-yl)pyridazin-3-yl]amine] | D (D=>20 uM)
CNc1n[nH]c2ccc(-c3ccc(NCC4(c5ncccc5F)CCC4)nn3)cc12 [{[(3-fluoro(2-pyridyl))cyclobutyl]methyl}{6-[3-(methylamino)(1H-indazol-5-yl)]pyridazin-3-yl}amine] | A (A=<1 uM)
COc1ncc(-c2ccc(NCC3(c4ccc(F)cc4)CCC3)nn2)cn1 [{[(4-fluorophenyl)cyclobutyl]meth-yl}[6-(2-methoxypyrimidin-5-yl)pyridazin-3-yl]amine] | B (B=1-10 uM)

Same assay, conditions: median AC1.4 class, procedure of Example 39

Compound | Mean AC1.4
CNc1n[nH]c2ccc(-c3ccc(NC[C@]4(c5ncccc5F)C[C@H](F)C4)nn3)cc12 [{[3-fluoro-1-(3-fluoro(2-pyridyl))cyclobutyl]methyl}{6-[3-(methylamino)(1H-indazol-5-yl)]pyridazin-3-yl}amine] | A (A=<1 uM)
Fc1cccnc1C1(CNc2ccc(-c3nccs3)nn2)CCC1 [{[(3-fluoro(2-pyridyl))cyclobutyl]methyl}(6-(1,3-thiazol-2-yl)pyridazin-3-yl)amine] | B (B=1-10 uM)
Fc1cccnc1C1(CNc2ccc(-c3nc4cccnc4s3)nn2)CCC1 [{[(3-fluoro(2-pyridyl))cyclobutyl]methyl}(6-(1,3-thiazolino[5,4-b]pyridin-2-yl)pyridazin-3-yl)amine] | B (B=1-10 uM)
Fc1cccnc1C1(CNc2ccc(-c3ccccn3)nn2)CCC1 [{[(3-fluoro(2-pyridyl))cyclobutyl]methyl}(6-(2-pyridyl)pyridazin-3-yl)amine] | B (B=1-10 uM)
Fc1cccnc1C1(CNc2ccc(-c3nc4c(s3)CNC4)nn2)CCC1 [{[(3-fluoro(2-pyridyl))cyclobutyl]methyl}(6-(3-pyrrolino[3,4-d]1,3-thiazol-2-yl)pyridazin-3-yl)amine] | D (D=>20 uM)
Fc1cccnc1C1(CNc2ccc(-c3ccccc3)nn2)CCC1 [{[(3-fluoro(2-pyridyl))cyclobutyl]methyl}(6-phenylpyridazin-3-yl)amine] | A (A=<1 uM)
Fc1cccnc1C1(CNc2ccc(-c3cnccn3)nn2)CCC1 [{[(3-fluoro(2-pyridyl))cyclobutyl]methyl}(6-pyrazin-2-ylpyridazin-3-yl)amine] | B (B=1-10 uM)
Fc1cccnc1C1(CNc2ccc(-c3ccnnc3)nn2)CCC1 [{[(3-fluoro(2-pyridyl))cyclobutyl]methyl}(6-pyridazin-4-ylpyridazin-3-yl)amine] | D (D=>20 uM)
Fc1cccnc1C1(CNc2ccc(-c3ncccn3)nn2)CCC1 [{[(3-fluoro(2-pyridyl))cyclobutyl]methyl}(6-pyrimidin-2-ylpyridazin-3-yl)amine] | B (B=1-10 uM)
C=Cc1ccc(NCC2(c3ncccc3F)CCC2)nn1 [{[(3-fluoro(2-pyridyl))cyclobutyl]methyl}(6-vinylpyridazin-3-yl)amine] | D (D=>20 uM)
Cc1ncccc1-c1ccc(NCC2(c3ncccc3F)CCC2)nn1 [{[(3-fluoro(2-pyridyl))cyclobutyl]methyl}[6-(2-methyl(3-pyridyl))pyridazin-3-yl]amine] | C (C=10-20 uM)
Cc1ncc(-c2ccc(NCC3(c4ncccc4F)CCC3)nn2)cn1 [{[(3-fluoro(2-pyridyl))cyclobutyl]methyl}[6-(2-methylpyrimidin-5-yl)pyridazin-3-yl]amine] | D (D=>20 uM)
Fc1cccnc1C1(CNc2ccc(-c3cnc(N4CCNCC4)nc3)nn2)CCC1 [{[(3-fluoro(2-pyridyl))cyclobutyl]methyl}[6-(2-piperazinylpyrimidin-5-yl)pyridazin-3-yl]amine] | D (D=>20 uM)
Fc1cccnc1-c1ccc(NCC2(c3ncccc3F)CCC2)nn1 [{[(3-fluoro(2-pyridyl))cyclobutyl]methyl}[6-(3-fluoro(2-pyridyl))pyridazin-3-yl]amine] | B (B=1-10 uM)
Fc1cccnc1C1(CNc2ccc(-c3ccc(N4CCOCC4)cc3)nn2)CCC1 [{[(3-fluoro(2-pyridyl))cyclobutyl]methyl}[6-(4-morpholin-4-ylphenyl)pyridazin-3-yl]amine] | D (D=>20 uM)
COc1ccc2nc(-c3ccc(NCC4(c5ncccc5F)CCC4)nn3)sc2n1 [{[(3-fluoro(2-pyridyl))cyclobutyl]methyl}[6-(5-methoxy(1,3-thiazolino[5,4-b]pyridin-2-yl))pyridazin-3-yl]amine] | D (D=>20 uM)
COc1ccc(-c2ccc(NCC3(c4ncccc4F)CCC3)nn2)nc1 [{[(3-fluoro(2-pyridyl))cyclobutyl]methyl}[6-(5-methoxy(2-pyridyl))pyridazin-3-yl]amine] | B (B=1-10 uM)
Fc1cccnc1C1(CNc2ccc(-c3ncc(-c4cc[nH]n4)s3)nn2)CCC1 [{[(3-fluoro(2-pyridyl))cyclobutyl]methyl}[6-(5-pyrazol-3-yl(1,3-thiazol-2-yl))pyridazin-3-yl]amine] | A (A=<1 uM)
Fc1cccnc1C1(CNc2ccc(-c3ncc(-c4cn[nH]c4)s3)nn2)CCC1 [{[(3-fluoro(2-pyridyl))cyclobutyl]methyl}[6-(5-pyrazol-4-yl(1,3-thiazol-2-yl))pyridazin-3-yl]amine] | A (A=<1 uM)
Fc1cccnc1C1(CNc2ccc(-c3ncc(CC(F)(F)F)s3)nn2)CCC1 [{[(3-fluoro(2-pyridyl))cyclobutyl]methyl}{6-[5-(2,2,2-trifluoroethyl)(1,3-thiazol-2-yl)]pyridazin-3-yl}amine] | B (B=1-10 uM)
(2S)-2-amino-N-({2-[6-({[(3- fluoro(2- pyridyl))cyclobutyl]methyl}ami- no)pyridazin-3-yl](1,3-thiazol-5- yl)}methyl)-3-hydroxy-3- methylbutanamide | A (A=<1 uM)
ethyl 2-[6-({[(3-fluoro-2- pyridyl)cyclobutyl]methyl}ami- no)pyridazin-3-yl]-1,3-thiazole-4- carboxylate | D (D=>20 uM)

Same assay, conditions: median AC1.4 reported as class; procedure of Example 39

Compound | Mean AC1.4
Fc1cccnc1[C@]1(CNc2ccc(-c3ccc(NC4CC4)nc3)nn2)C[C@@H](F)C1 [{6-[6-(cyclopropylamino)(3-pyridyl)]pyridazin-3-yl}{[3-fluoro-1-(3-fluoro(2-pyridyl))cyclobutyl]methyl}amine] | D (D=>20 uM)
Nc1ncc(-c2ccc(NC[C@]3(c4ncccc4F)C[C@H](F)C3)nn2)cc1C(F)(F)F [{6-[6-amino-5-(trifluoromethyl)(3-pyridyl)]pyridazin-3-yl}{[3-fluoro-1-(3-fluoro(2-pyridyl))cyclobutyl]methyl}amine] | B (B=1-10 uM)
COc1ncc(-c2ccc(NC[C@]3(c4ncccc4F)C[C@H](F)C3)nn2)cc1C [{[3-fluoro-1-(3-fluoro(2-pyridyl))cyclobutyl]methyl}[6-(6-methoxy-5-methyl(3-pyridyl))pyridazin-3-yl]amine] | D (D=>20 uM)
CNc1ccc(-c2ccc(NC[C@]3(c4ncccc4F)C[C@H](F)C3)nn2)cn1 [{[3-fluoro-1-(3-fluoro(2-pyridyl))cyclobutyl]methyl}{6-[6-(methylamino)(3-pyridyl)]pyridazin-3-yl}amine] | B (B=1-10 uM)
Fc1cccnc1C1(CNc2ccc(-c3nc4c(s3)CNCC4)nn2)CCC1 [{[(3-fluoro(2-pyridyl))cyclobutyl]methyl}(6-(4,5,6,7-tetrahydro-1,3-thiazolo[5,4-c]pyridin-2-yl)pyridazin-3-yl)amine] | D (D=>20 uM)
CN1CCN(Cc2cnc(-c3ccc(NCC4(c5ncccc5F)CCC4)nn3)s2)CC1 [{[(3-fluoro(2-pyridyl))cyclobutyl]methyl}(6-{5-[(4-methylpiperazinyl)methyl](1,3-thiazol-2-yl)}pyridazin-3-yl)amine] | B (B=1-10 uM)
Fc1cccnc1C1(CNc2ccc(-c3ncc(CN4CCN(CC(F)(F)F)CC4)s3)nn2)CCC1 [{[(3-fluoro(2-pyridyl))cyclobutyl]methyl}[6-(5-{[4-(2,2,2-trifluoroethyl)piperazinyl]meth-yl}(1,3-thiazol-2-yl))pyridazin-3-yl]amine] | B (B=1-10 uM)
Fc1cccnc1C1(CNc2ccc(Cc3ccccc3)nn2)CCC1 [{[(3-fluoro(2-pyridyl))cyclobutyl]methyl}[6-benzylpyridazin-3-yl]amine] | D (D=>20 uM)
Fc1cccnc1C1(CNc2ccc(-c3ncc(CN4CCOCC4)s3)nn2)CCC1 [{[(3-fluoro(2-pyridyl))cyclobutyl]methyl}{6-[5-(morpholin-4-ylmethyl)(1,3-thiazol-2-yl)]pyridazin-3-yl}amine] | B (B=1-10 uM)
Fc1cccnc1C1(CNc2ccc(-c3ncc(CN4CCNCC4)s3)nn2)CCC1 [{[(3-fluoro(2-pyridyl))cyclobutyl]methyl}{6-[5-(piperazinylmethyl)(1,3-thiazol-2-yl)]pyridazin-3-yl}amine] | B (B=1-10 uM)
[6-({[(3-fluoro(2- pyridyl))cyclobutyl]methyl}ami- no)pyridazin-3-yl]-N-[(5- oxopyrrolidin-3- yl)methyl]carboxamide | D (D=>20 uM)
